Experimental data published in ChEMBL document CHEMBL1124186, “Synthesis and evaluation of tylosin-related macrolides modified at the aldehyde function: a new series of orally effective antibiotics” (1988).
Converted amounts (≈) assume the structure as drawn.

Legend:
[1] = system: Staphylococcus aureus; experiment: In vitro antimicrobial activity against Staphylococcus aureus X1; assay type: functional
[2] = system: Streptococcus pneumoniae; experiment: In vitro antimicrobial activity against Streptococcus pneumoniae; assay type: functional
[3] = system: Enterococcus faecium; experiment: In vitro antimicrobial activity against Streptococcus faecium X66; assay type: functional, streptococcus fae-cium
[4] = system: Staphylococcus epidermidis; experiment: In vitro antimicrobial activity against Staphylococcus epidermidis EPI1; assay type: functional
[5] = system: Streptococcus pyogenes; experiment: In vivo effective dose against experimental infections in rodent caused by Streptococcus pyogenes C203 when administered sc; assay type: functional
[6] = system: Streptococcus pyogenes; experiment: In vitro antimicrobial activity against Streptococcus pyogenes C203; assay type: functional
[7] = system: Haemophilus influenzae; experiment: In vitro antimicrobial activity against Haemophilus influenzae.; assay type: functional

| Compound | MIC [1] [µg/mL] | MIC [2] [µg/mL] | MIC [3] [µg/mL] | MIC [4] [µg/mL] | MIC [6] [µg/mL] | MIC [7] [µg/mL] | ED50 [5] [mg/kg] |
| --- | --- | --- | --- | --- | --- | --- | --- |
| CC[C@H]1OC(=O)C[C@@H](O)[C@H](C)[C@@H](O[C@@H]2O[C@H](C)[C@@H](O[C@H]3C[C@@](C)(O)[C@@H](O)[C@H](C)O3)[C@H](N(C)C)[C@H]2O)[C@@H](CCN2C(=O)c3ccccc3C2=O)C[C@@H](C)C(=O)/C=C/C(C)=C/[C@@H]1C | 64 (≈ 74.7 µM) | 8 (≈ 9.33 µM) | 128 (≈ 149 µM) | 64 (≈ 74.7 µM) | 64 (≈ 74.7 µM) | > 128 |  |
| CC[C@H]1OC(=O)C[C@@H](O)[C@H](C)[C@@H](O[C@@H]2O[C@H](C)[C@@H](O[C@H]3C[C@@](C)(O)[C@@H](O)[C@H](C)O3)[C@H](N(C)C)[C@H]2O)[C@@H](CCO)C[C@@H](C)C(=O)/C=C/C(C)=C/[C@@H]1CO | > 128 | 64 (≈ 86 µM) | > 128 | 128 (≈ 172 µM) | 64 (≈ 86 µM) | > 128 |  |
| CC[C@H]1OC(=O)C[C@@H](O)[C@H](C)[C@@H](O[C@@H]2O[C@H](C)[C@@H](O[C@H]3C[C@@](C)(O)[C@@H](O)[C@H](C)O3)[C@H](N(C)C)[C@H]2O)[C@@H](CCOc2cccc(N(C)C)c2)C[C@@H](C)C(=O)/C=C/C(C)=C/[C@@H]1CO[C@@H]1O[C@H](C)[C@@H](O)[C@@H](OC)[C@H]1OC | 1 (≈ 0.964 µM) | 8 (≈ 7.71 µM) | 64 (≈ 61.7 µM) | 1 (≈ 0.964 µM) | 1 (≈ 0.964 µM) | 128 (≈ 123 µM) |  |
| CC[C@H]1OC(=O)C[C@@H](O)[C@H](C)[C@@H](O[C@@H]2O[C@H](C)[C@@H](O[C@H]3C[C@@](C)(O)[C@@H](O)[C@H](C)O3)[C@H](N(C)C)[C@H]2O)[C@@H](CCSc2ccccc2)C[C@@H](C)C(=O)/C=C/C(C)=C/[C@@H]1CO[C@@H]1O[C@H](C)[C@@H](O)[C@@H](OC)[C@H]1OC | 1 (≈ 0.99 µM) | 64 (≈ 63.3 µM) | > 128 | 2 (≈ 1.98 µM) | 4 (≈ 3.96 µM) | > 128 |  |
| CCOC(=O)NN(CC[C@H]1C[C@@H](C)C(=O)/C=C/C(C)=C/[C@H](CO[C@@H]2O[C@H](C)[C@@H](O)[C@@H](OC)[C@H]2OC)[C@@H](CC)OC(=O)C[C@@H](O)[C@H](C)[C@H]1O[C@@H]1O[C@H](C)[C@@H](O[C@H]2C[C@@](C)(O)[C@@H](O)[C@H](C)O2)[C@H](N(C)C)[C@H]1O)C(=O)OCC | 2 (≈ 1.86 µM) | 8 (≈ 7.43 µM) | > 128 | 4 (≈ 3.72 µM) | 8 (≈ 7.43 µM) | > 128 |  |

Continued by falling MIC [1], values first:

| MIC [1] [µg/mL] | MIC [2] [µg/mL] | MIC [3] [µg/mL] | MIC [4] [µg/mL] | MIC [6] [µg/mL] | MIC [7] [µg/mL] | Compound | ED50 [5] [mg/kg] |
| --- | --- | --- | --- | --- | --- | --- | --- |
| 128 (≈ 176 µM) | > 128 | > 128 | 128 (≈ 176 µM) | > 128 | > 128 | CC[C@H]1C[C@@H](C)C(=O)/C=C/C(C)=C/[C@H](CO)[C@@H](CC)OC(=O)C[C@@H](O)[C@H](C)[C@H]1O[C@@H]1O[C@H](C)[C@@H](O[C@H]2C[C@@](C)(O)[C@@H](O)[C@H](C)O2)[C@H](N(C)C)[C@H]1O |  |
| 2 (≈ 1.97 µM) | 16 (≈ 15.8 µM) | 128 (≈ 126 µM) | 2 (≈ 1.97 µM) | 4 (≈ 3.94 µM) | 128 (≈ 126 µM) | CC[C@H]1OC(=O)C[C@@H](O)[C@H](C)[C@@H](O[C@@H]2O[C@H](C)[C@@H](O[C@H]3C[C@@](C)(O)[C@@H](O)[C@H](C)O3)[C@H](N(C)C)[C@H]2O)[C@@H](CCI)C[C@@H](C)C(=O)/C=C/C(C)=C/[C@@H]1CO[C@@H]1O[C@H](C)[C@@H](O)[C@@H](O)[C@H]1OC |  |
| 1 (≈ 0.951 µM) | 1 (≈ 0.951 µM) | 64 (≈ 60.9 µM) | 0.5 (≈ 0.476 µM) | 2 (≈ 1.9 µM) | 128 (≈ 122 µM) | CC[C@H]1OC(=O)C[C@@H](O)[C@H](C)[C@@H](O[C@@H]2O[C@H](C)[C@@H](O[C@H]3C[C@@](C)(O)[C@@H](O)[C@H](C)O3)[C@H](N(C)C)[C@H]2O)[C@@H](CCNc2ccc(OC(C)=O)cc2)C[C@@H](C)C(=O)/C=C/C(C)=C/[C@@H]1CO[C@@H]1O[C@H](C)[C@@H](O)[C@@H](OC)[C@H]1OC |  |
| 0.5 (≈ 0.541 µM) | 4 (≈ 4.33 µM) | 32 (≈ 34.6 µM) | 0.5 (≈ 0.541 µM) | 0.5 (≈ 0.541 µM) | 64 (≈ 69.3 µM) | CC[C@H]1OC(=O)C[C@@H](O)[C@H](C)[C@@H](O[C@@H]2O[C@H](C)[C@@H](O)[C@H](N(C)C)[C@H]2O)[C@@H](CCOC(C(F)(F)F)C(F)(F)F)C[C@@H](C)C(=O)/C=C/C(C)=C/[C@@H]1CO[C@@H]1O[C@H](C)[C@@H](O)[C@@H](OC)[C@H]1OC | > 10 |
| 0.5 (≈ 0.492 µM) | 32 (≈ 31.5 µM) | 128 (≈ 126 µM) | 1 (≈ 0.984 µM) | 1 (≈ 0.984 µM) | > 128 | CC[C@H]1OC(=O)C[C@@H](O)[C@H](C)[C@@H](O[C@@H]2O[C@H](C)[C@@H](O[C@H]3C[C@@](C)(O)[C@@H](O)[C@H](C)O3)[C@H](N(C)C)[C@H]2O)[C@@H](CCSc2nnnn2C)C[C@@H](C)C(=O)/C=C/C(C)=C/[C@@H]1CO[C@@H]1O[C@H](C)[C@@H](O)[C@@H](OC)[C@H]1OC | > 6.3 |
| 0.5 (≈ 0.635 µM) | 4 (≈ 5.08 µM) | 16 (≈ 20.3 µM) | 0.5 (≈ 0.635 µM) | 0.5 (≈ 0.635 µM) |  | CC[C@H]1OC(=O)C[C@@H](O)[C@H](C)[C@@H](O[C@@H]2O[C@H](C)[C@@H](O)[C@H](N(C)C)[C@H]2O)[C@@H](CCOC)C[C@@H](C)C(=O)/C=C/C(C)=C/[C@@H]1CO[C@@H]1O[C@H](C)[C@@H](O)[C@@H](OC)[C@H]1OC | > 6.3 |
